Experimental data as given in PubChem BioAssay AID1918993 (Molecular Pharmacology Branch, DTP, NCI, 2023).

System: 233499-124-R-J3-PDC complex spheroid growth
Assay: Anticancer human tumor 233499-124-R-J3-PDC patient-derived colon adenocarcinoma cell line growth inhibition [AhR]
Details: for IC50: curve of first compound; for viability, T/C: stronger effect = lower value
Source text: Multicellular complex tumor spheroid response to aryl hydrocarbon receptor antagonists in combination with a variety of drugs and investigational agents in selected tumor cell lines
The current study was undertaken to assess response to aryl hydrocarbon receptor antagonists in combination with standard-of-care drugs and investigational agents in solid tumor complex spheroid models. Complex spheroids include a stromal component modeled by human endothelial cells (HUVEC) and fibroblasts modeled by human mesenchymal stem cells (MSCs). The concentration ranges selected for each drug and investigational agent were based upon clinically achievable concentrations if the clinical Cmax of the agent was known.
Compounds. The drugs and investigational agents: BAY 2416964 (NSC825713), GNF351 (NSC835774), CH-223191 (NSC835775), CPI-455 (NSC825282), aza-TdCyd (NSC777586), decitabine (NSC127716), belinostat (NSC758774), entinostat (NSC756642), pevonedistat (NSC761192), tazemetostat (NSC777109), talazoparib (NSC765396), olaparib (NSC753686), selinexor (NSC780203), nedisertib (M3814, NSC802822), bortezomib (NSC756655), venetoclax (NSC766270), doxorubicin (NSC123127), elimusertib (BAY189344, NSC800525), ceralasertib (AZD6738, NSC777638), TAK-243 (NSC785004), alisertib (NSC759677), etoposide (NSC141540), topotecan (NSC609699), eribulin (NSC707389), gemcitabine (NSC613327), carboplatin (NSC241240), cisplatin (NSC119875), and SN-38 (NSC673596) were obtained from the National Cancer Institute (NCI) Developmental Therapeutics Program Chemical Repository (32). The FDA-approved anticancer drug set is available from the Developmental Therapeutics Program at https://dtp.cancer.gov/organization/dscb/obtaining/available plates.htm. […] The stock solutions were prepared in dimethyl sulfoxide (DMSO, Sigma-Aldrich, St. Louis, MO, cat. D2650), except for the platinum compounds which were prepared in saline (Quality Biological, Gaithersburg, MD, cat. 114-055-101), at 800-fold the tested concentration and stored at -70 degrees C prior to their use. All drugs and investigational agents were tested over a range starting from a high concentration at or near the clinical Cmax and decreasing in half-log increments. If the clinical Cmax for an agent had not been determined, the highest concentration tested was 10 microM (Table 1).
Cell Culture. All cells were maintained in an incubator at 37 degrees C and 5% CO2 with 95% humidity. The PDC lines were cultured according to standard operating procedures established by the NCI PDMR (https://pdmr.cancer.gov). Briefly, all PDCs were thawed and cultured in Matrigel-coated flasks prepared with a working solution of 1X Ham's F-12 nutrient mix, without supplementation (Invitrogen, Waltham, MA, cat. 11765054), 100 U/mL penicillin-streptomycin (Invitrogen, cat. 15140122), and 2.5% Matrigel (Corning Inc., Corning, NY, cat. 354248) for the first three passages. All PDCs were cultured in complete DMEM/F-12 media containing advanced DMEM/F-12 (Invitrogen, cat. 12634028), 4.9% defined fetal bovine serum, heat inactivated (HyClone Laboratories Inc., Logan, UT, cat. SH30070.03HI), 389 ng/mL hydrocortisone (Sigma-Aldrich, cat. H4001), 9.7 ng/mL human EGF recombinant protein (Invitrogen, cat. PHG0313), 23.4 microg/mL adenine (Sigma-Aldrich, cat. A2786), 97.3 U/mL penicillin-streptomycin (Invitrogen, cat. 15140122), 1.9 mM L-glutamine (Invitrogen, cat. 25030081), and 9.7 microM Y-27632 dihydrochloride (Tocris Bioscience, Bristol, United Kingdom, cat. 1254). The PDCs were cultured in complete DMEM/F12 media without 10 microM Y-27632 dihydrochloride for at least two passages prior to the screen. The established cell lines NCI-H1341 and […] were cultured in DMEM/F-12, HEPES (Invitrogen, cat. 11330032), 5% defined fetal bovine serum (HyClone Laboratories Inc., cat. SH30070.03), ITS premix universal culture supplement [insulin (5 microg/mL), transferrin (5 microg/mL), and selenious acid (5 ng/mL)] […]

[1] = second compound 0.1 µM, first compound 0.0316 µM
[2] = second compound 0.1 µM, first compound 0.1 µM
[3] = second compound 0.1 µM, first compound 0.316 µM
[4] = second compound 0.1 µM, first compound 1 µM
[5] = second compound 0.1 µM, first compound 3.16 µM
[6] = second compound 0.1 µM, first compound 10 µM
[7] = second compound 0.316 µM, first compound 0.0316 µM
[8] = second compound 0.316 µM, first compound 0.1 µM
[9] = second compound 0.316 µM, first compound 0.316 µM
[10] = second compound 0.316 µM, first compound 1 µM
[11] = second compound 0.316 µM, first compound 3.16 µM
[12] = second compound 0.316 µM, first compound 10 µM
[13] = second compound 1 µM, first compound 0.0316 µM
[14] = second compound 1 µM, first compound 0.1 µM
[15] = second compound 1 µM, first compound 0.316 µM
[16] = second compound 1 µM, first compound 1 µM
[17] = second compound 1 µM, first compound 3.16 µM
[18] = second compound 1 µM, first compound 10 µM
[19] = second compound 3.16 µM, first compound 0.0316 µM
[20] = second compound 3.16 µM, first compound 0.1 µM
[21] = second compound 3.16 µM, first compound 0.316 µM
[22] = second compound 3.16 µM, first compound 1 µM
[23] = second compound 3.16 µM, first compound 3.16 µM
[24] = second compound 3.16 µM, first compound 10 µM
[25] = second compound 10 µM, first compound 0.0316 µM
[26] = second compound 10 µM, first compound 0.1 µM
[27] = second compound 10 µM, first compound 0.316 µM
[28] = second compound 10 µM, first compound 1 µM
[29] = second compound 10 µM, first compound 3.16 µM
[30] = second compound 10 µM, first compound 10 µM
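Note: spheroids exposed to agents for seven days before reading.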

Question: For `CC(C)CC(NC(=O)C(Cc1ccccc1)NC(=O)c1cnccn1)B(O)O` (stereo not given) + CC(CO)NC(=O)c1cc(-c2ccc(Cl)cc2)nn(-c2cnn(C)c2)c1=O, which IC50 (second compound 0.1 µM) is on record?
Answer: 8.47 nM

Question: What about the IC50 (second compound 0.316 µM) of the same molecule?
Answer: 8.01 nM

Question: What about the IC50 (second compound 1 µM) of the same molecule?
Answer: 6.87 nM

Question: And the IC50 (second compound 3.16 µM)?
Answer: 6.12 nM

Question: And the IC50 (second compound 10 µM)?
Answer: 4.96 nM

Question: What about the viability, T/C (second compound 0.1 µM, first compound 0.000949 µM) of the same molecule?
Answer: 92.4%

Question: What about the viability, T/C (second compound 0.1 µM, first compound 0.003 µM) of the same molecule?
Answer: 102%

Question: What about the viability, T/C (second compound 0.1 µM, first compound 0.00949 µM) of the same molecule?
Answer: 44.9%

Question: And the viability, T/C (second compound 0.1 µM, first compound 0.03 µM)?
Answer: 0.09%

Question: And the viability, T/C (second compound 0.1 µM, first compound 0.0949 µM)?
Answer: 0.09%

Question: What about the viability, T/C (second compound 0.1 µM, first compound 0.3 µM) of the same molecule?
Answer: 0.2%

Question: What about the viability, T/C (second compound 0.316 µM, first compound 0.000949 µM) of the same molecule?
Answer: 92.1%

Question: What about the viability, T/C (second compound 0.316 µM, first compound 0.003 µM) of the same molecule?
Answer: 93.2%

Question: And the viability, T/C (second compound 0.316 µM, first compound 0.00949 µM)?
Answer: 42.6%

Question: What about the viability, T/C (second compound 0.316 µM, first compound 0.03 µM) of the same molecule?
Answer: 0.13%

Question: And the viability, T/C (second compound 0.316 µM, first compound 0.0949 µM)?
Answer: 0.04%

Question: And the viability, T/C (second compound 0.316 µM, first compound 0.3 µM)?
Answer: 0.12%

Question: What about the viability, T/C (second compound 1 µM, first compound 0.000949 µM) of the same molecule?
Answer: 102%

Question: What about the viability, T/C (second compound 1 µM, first compound 0.003 µM) of the same molecule?
Answer: 100%

Question: And the viability, T/C (second compound 1 µM, first compound 0.00949 µM)?
Answer: 30.6%

Question: And the viability, T/C (second compound 1 µM, first compound 0.03 µM)?
Answer: 0.08%

Question: What about the viability, T/C (second compound 1 µM, first compound 0.0949 µM) of the same molecule?
Answer: 0.05%

Question: What about the viability, T/C (second compound 1 µM, first compound 0.3 µM) of the same molecule?
Answer: 0.12%

Question: And the viability, T/C (second compound 3.16 µM, first compound 0.000949 µM)?
Answer: 84.5%

Question: And the viability, T/C (second compound 3.16 µM, first compound 0.003 µM)?
Answer: 88.8%

Question: And the viability, T/C (second compound 3.16 µM, first compound 0.00949 µM)?
Answer: 27.5%

Question: What about the viability, T/C (second compound 3.16 µM, first compound 0.03 µM) of the same molecule?
Answer: 0.1%

Question: What about the viability, T/C (second compound 3.16 µM, first compound 0.0949 µM) of the same molecule?
Answer: 0.13%

Question: And the viability, T/C (second compound 3.16 µM, first compound 0.3 µM)?
Answer: 0.12%

Question: What about the viability, T/C (second compound 10 µM, first compound 0.000949 µM) of the same molecule?
Answer: 66.5%

Question: What about the viability, T/C (second compound 10 µM, first compound 0.003 µM) of the same molecule?
Answer: 84.2%

Question: What about the viability, T/C (second compound 10 µM, first compound 0.00949 µM) of the same molecule?
Answer: 17.2%

Question: And the viability, T/C (second compound 10 µM, first compound 0.03 µM)?
Answer: 0.18%

Question: What about the viability, T/C (second compound 10 µM, first compound 0.0949 µM) of the same molecule?
Answer: 0.12%

Question: What about the viability, T/C (second compound 10 µM, first compound 0.3 µM) of the same molecule?
Answer: 0.18%

Question: Which results are given for `Nc1ccccc1NC(=O)c1ccc(CNC(=O)OCc2cccnc2)cc1` + CC(CO)NC(=O)c1cc(-c2ccc(Cl)cc2)nn(-c2cnn(C)c2)c1=O?
Answer: IC50 (second compound 0.1 µM): 2280 nM; IC50 (second compound 0.316 µM): 2240 nM; IC50 (second compound 1 µM): 3930 nM; IC50 (second compound 3.16 µM): 1940 nM; IC50 (second compound 10 µM): 1320 nM; viability, T/C [1]: 97.6%; viability, T/C [2]: 92.2%; viability, T/C [3]: 87.1%; viability, T/C [4]: 91%; viability, T/C [5]: 33.8%; viability, T/C [6]: 3.08%; viability, T/C [7]: 102%; viability, T/C [8]: 91.4%; viability, T/C [9]: 99%; viability, T/C [10]: 78.2%; viability, T/C [11]: 37.9%; viability, T/C [12]: 5%; viability, T/C [13]: 88.8%; viability, T/C [14]: 96.7%; viability, T/C [15]: 105%; viability, T/C [16]: 96%; viability, T/C [17]: 60.7%; viability, T/C [18]: 3.71%; viability, T/C [19]: 91.9%; viability, T/C [20]: 105%; viability, T/C [21]: 101%; viability, T/C [22]: 90.8%; viability, T/C [23]: 19.7%; viability, T/C [24]: 1.49%; viability, T/C [25]: 97.1%; viability, T/C [26]: 82.9%; viability, T/C [27]: 87.9%; viability, T/C [28]: 62%; viability, T/C [29]: 11.8%; viability, T/C [30]: 0.6%

Question: Which results are given for `O=C(C=Cc1cccc(S(=O)(=O)Nc2ccccc2)c1)NO` + CC(CO)NC(=O)c1cc(-c2ccc(Cl)cc2)nn(-c2cnn(C)c2)c1=O?
Answer: IC50 (second compound 0.1 µM): 5440 nM; IC50 (second compound 0.316 µM): 2910 nM; IC50 (second compound 1 µM): 5150 nM; IC50 (second compound 3.16 µM): 3070 nM; IC50 (second compound 10 µM): 3520 nM; viability, T/C [1]: 98%; viability, T/C [2]: 108%; viability, T/C [3]: 111%; viability, T/C [4]: 115%; viability, T/C [5]: 89%; viability, T/C [6]: 6.36%; viability, T/C [7]: 99.5%; viability, T/C [8]: 93%; viability, T/C [9]: 98.2%; viability, T/C [10]: 96.6%; viability, T/C [11]: 46.3%; viability, T/C [12]: 4.58%; viability, T/C [13]: 97.6%; viability, T/C [14]: 94.3%; viability, T/C [15]: 110%; viability, T/C [16]: 112%; viability, T/C [17]: 84.1%; viability, T/C [18]: 3.72%; viability, T/C [19]: 94.4%; viability, T/C [20]: 87.6%; viability, T/C [21]: 117%; viability, T/C [22]: 108%; viability, T/C [23]: 48.7%; viability, T/C [24]: 2.7%; viability, T/C [25]: 93.9%; viability, T/C [26]: 73.9%; viability, T/C [27]: 90.9%; viability, T/C [28]: 119%; viability, T/C [29]: 54.9%; viability, T/C [30]: 3.22%
